Data from the supplement of paper PMC10307832.

Key:
Experiment in all cases: relative viability (nuclei count vs DMSO), 5 days (fraction); higher = more cells survive
VE-821 + Pictilisib = compound: CS(=O)(=O)c1ccc(-c2cnc(N)c(C(=O)Nc3ccccc3)n2)cc1 [VE-821] + CS(=O)(=O)N1CCN(Cc2cc3nc(-c4cccc5[nH]ncc45)nc(N4CCOCC4)c3s2)CC1 [Pictilisib] (partner 1 µM)
Outline: (§1)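 Lung cancer cell lines were seeded in 1536-well plates and dosed by pin tool the next day, with either a single drug or a fixed anchor-drug dose combined with five library-drug doses (not always all listed) spaced in √10 steps. Five days later, one step fixed the cells and stained their nuclei (final 0.05% Triton X-100, 1% formaldehyde, 1 ug/ml Hoechst), and nuclei were counted on 4× images. Relative viability is the nuclei count in treated wells divided by the count in vehicle wells, and each value is the median of duplicate plates.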

Vismodegib + Lapatinib = compound: CS(=O)(=O)c1ccc(C(=O)Nc2ccc(Cl)c(-c3ccccn3)c2)c(Cl)c1 [Vismodegib] + CS(=O)(=O)CCNCc1ccc(-c2ccc3ncnc(Nc4ccc(OCc5cccc(F)c5)c(Cl)c4)c3c2)o1 [Lapatinib] (partner 2 µM)
Outline: as §1

Ruxolitinib + Navitoclax = compound: N#CC[C@H](C1CCCC1)n1cc(-c2ncnc3[nH]ccc23)cn1 [Ruxolitinib] + CC1(C)CCC(c2ccc(Cl)cc2)=C(CN2CCN(c3ccc(C(=O)NS(=O)(=O)c4ccc(N[C@H](CCN5CCOCC5)CSc5ccccc5)c(S(=O)(=O)C(F)(F)F)c4)cc3)CC2)C1 [Navitoclax] (partner 0.5 µM)
Outline: as §1

Ruxolitinib + Linsitinib = compound: N#CC[C@H](C1CCCC1)n1cc(-c2ncnc3[nH]ccc23)cn1 [Ruxolitinib] + C[C@]1(O)C[C@@H](c2nc(-c3ccc4ccc(-c5ccccc5)nc4c3)c3c(N)nccn32)C1 [Linsitinib] (partner 1 µM)
Outline: as §1

Cell Line	relative viability (VE-821 + Pictilisib; first compound 0.08 µM)	relative viability (VE-821 + Pictilisib; first compound 0.253 µM)	relative viability (VE-821 + Pictilisib; first compound 0.8 µM)	relative viability (VE-821 + Pictilisib; first compound 2.53 µM)	relative viability (VE-821 + Pictilisib; first compound 8 µM)	relative viability (Vismodegib + Lapatinib; first compound 0.08 µM)	relative viability (Vismodegib + Lapatinib; first compound 0.253 µM)	relative viability (Vismodegib + Lapatinib; first compound 0.8 µM)	relative viability (Vismodegib + Lapatinib; first compound 2.53 µM)	relative viability (Vismodegib + Lapatinib; first compound 8 µM)	relative viability (Ruxolitinib + Navitoclax; first compound 0.08 µM)	relative viability (Ruxolitinib + Navitoclax; first compound 0.253 µM)	relative viability (Ruxolitinib + Navitoclax; first compound 0.8 µM)	relative viability (Ruxolitinib + Navitoclax; first compound 2.53 µM)	relative viability (Ruxolitinib + Navitoclax; first compound 8 µM)	relative viability (Ruxolitinib + Linsitinib; first compound 0.08 µM)	relative viability (Ruxolitinib + Linsitinib; first compound 0.253 µM)	relative viability (Ruxolitinib + Linsitinib; first compound 0.8 µM)	relative viability (Ruxolitinib + Linsitinib; first compound 2.53 µM)	relative viability (Ruxolitinib + Linsitinib; first compound 8 µM)
EBC-1	0.295	0.353	0.382	0.433	0.312	0.215	0.189	0.205	0.195	0.215	0.372	0.435	0.402	0.347	0.237	0.831	1.1	1.06	0.783	0.823
NCI-H661	0.379	0.393	0.406	0.39	0.336	0.464	0.488	0.534	0.483	0.493						0.598	0.639	0.708	0.498	0.591
NCI-H596	0.416	0.4	0.431	0.431	0.385	0.983	1.07	0.941	1.1	1.09	0.903	1.05	1	1.01	1.14	1.24	1.18	1.09	1.11	1.11
IA-LM	0.412	0.341	0.443	0.749	0.551	0.807	0.639	0.802	0.691	0.911	0.821	0.85	0.913	0.743	0.395	0.652	0.662	0.719	0.518	0.469
LC-2-ad	0.704	0.392	0.545	0.514	0.373	0.917	0.963	0.993	0.943	0.954	0.376	0.435	0.444	0.257	0.243	0.741	0.86	0.814	0.68	0.496
Calu-6	1.1	0.973	0.918	0.778	0.523	1.13	1.08	1.06	1.09	1.03	0.836	0.858	0.862	0.767	0.294	0.94	0.923	1.01		0.882
NCI-H2126	0.483	0.436	0.487	0.507	0.439	0.725	0.746	0.701	0.616	0.729	0.82	0.725	0.781	0.8	0.689	0.701	0.725	0.731	0.744	0.702
NCI-H647	0.472	0.391		0.428	0.263	0.99	0.998	1.17	1.01	1.12		0.995	1.27	0.855	0.989	1.29	1.15	1.22	1.16	1.03
NCI-H322M	0.549		0.49	0.608	0.422	0.631	0.646	0.519	0.565	0.572	1.36	1.26	1.27	1.53	1.44	1.05	0.9	0.997	0.91	1.17
NCI-H358	0.383	0.273	0.408	0.359	0.38	0.471	0.505	0.422	0.518	0.461						0.716	0.629	0.803	0.514	0.544
LK-2	0.709	0.59	0.601	0.595	0.606	0.916	0.941	0.893	0.896	0.72		0.719	1.11	0.9	0.708	0.459	0.715	0.722	0.36	0.765
NCI-H1993	0.861	0.821	0.822	0.874	0.862	0.745	1.02	0.806	0.788	0.777	0.858	0.869	0.998	1.02	0.932	0.785	0.783	0.779	0.801	0.796
A-427	0.763	0.538	0.54	0.684	0.389	1.09	1.04	1.01	0.977	1.13	1	0.939	0.959	0.917	0.8	1.14	1.11	1.13	0.961	0.922
ChaGo-K-1	0.705	0.712	0.927	0.797	0.339							0.861	0.796	0.986	0.734					
ABC-1	0.902	0.684	0.721	0.751	0.466		1.17	1.14	1.02	1.15						0.983	0.705	0.865	0.97	0.871
NCI-H2170	0.319	0.289	0.332	0.4	0.293	0.258	0.271	0.26	0.307	0.28	0.6	0.575	0.618	0.593	0.48					
NCI-H1650	0.677	0.506	0.57	0.638	0.499	0.704	0.767	0.666	0.806	0.748		1.05	1.23	0.96	0.971					
NCI-H441	0.56	0.527	0.537	0.519	0.352						0.817	0.501	0.659	0.45	0.623	0.508	0.573	0.512	0.637	0.286
